Experimental findings from US9241964B2, “Composition from Sphaeranthus indicus and Garcinia mangostana for the control of metabolic syndrome” (LAILA NUTRACEUTICALS, priority 2009, dated 2016) are described below.

For one experiment, the system named is CD36. Kind of experiment: Immunoblot of CD36 in high glucose induced J774 macrophage cells. The class given is cell-based, mouse. To be noted: glucose 600 mg/dL for 5 days, LI054A01 at 1 μg/ml. As to the method: In macrophages, CD36 is a scavenger receptor that mediates uptake of oxidized low-density lipoprotein (OxLDL) and subsequent foam-cell development. Therefore, increased level of CD36 in macrophages has been considered as a predictive marker for development of atherosclerosis. Inhibition of CD36 protein expression in high glucose induced J774 macrophage cells in presence or absence of LI/DD-II/054A/01 and LI054A01 was evaluated using immunoblot assay. Briefly, equal amount of cell lysates protein obtained after treating the cells with LI/DD-II/054A/01 or LI054A01 was resolved in 7.5% SDS-PAGE; thereafter, the proteins were transferred to nitrocellulose membrane. […] Finally, the specific immuno-reactive bands were developed with West-pico chemiluminescent substrate (Pierce Biotechnology, IL, USA), and the immunoblot images were recorded in a Kodak Image Station (Kodak, USA). Band intensities were calculated densitometrically and normalized with expression of actin in respective samples. […]
Experimental protocol: This was evaluated in glucose induced J774, mouse macrophage cells. […] Protein concentration was measured by Bradford method.
Inhibition of CD36 protein expression in high glucose induced J774 macrophage cells in presence or absence of LI/DD-II/054A/01 and LI054A01 was evaluated in immunoblot assay. […]
For orientation: Immunoblotting shows a protein as a band on a membrane.

The subject of experiment [1] is Matrix Metalloproteinase-1 (MMP-1). Kind of experiment: Inhibition of MMP-1 production in PMA induced A2058 cells (ELISA). Format: cell-based. To be noted: PMA induced A2058 human melanoma cells, 24 h, supernatant ELISA. The protocol: A2058 cells were induced with 50 nM PMA in absence or presence of different concentrations of LI/DD-II/054A/01 for 24 h as indicated. Secreted MMP-1 concentration in the cell free culture supernatants was measured using MMP-1 ELISA Development Kit (R&D System, Minneapolis, Minn., USA). The MMP-1 concentration in culture supernatants was estimated quantitatively from the standard curve generated using known concentrations of MMP-1. Percentage of MMP-1 inhibition at each concentration of test compound was calculated from the formula: {(Conc. of MMP-1 in PMA induced−Conc. of MMP-1 in the test well)×100}[…]Conc. of MMP-1 in PMA induced wells.
MMP-1 was evaluated in PMA induced human melanoma cells, A2058. Briefly, the cells were cultured in Dulbecco's Modified Eagles Medium (DMEM) with 2 mM Glutamine, 100 U/mL penicillin, […] streptomycin and 10% fetal bovine serum (Hyclone, Logan, Utah). Five thousand cells per well were seeded into a 96-well cell culture plate (Corning, USA) one day before the experiment. The culture media was replaced with fresh DMEM containing 10% fetal bovine serum. […] The MMP-1 concentration in culture supernatant was estimated quantitatively by interpolating the optical densities into the standard curve generated from known concentrations of MMP-1. […]
On the technique in general: An ELISA detects its analyte on a solid surface through an enzyme-linked reagent.

Molecules are shown by their SMILES.

With `C=C1C(=O)O[C@H]2C3=C(C)CCC[C@]3(C)CC[C@@]12O` [LI054A01, 7-α-hydroxy-4,11(13)-eudesmadien-12,6-olide], the “inhibition of CD36 compared to that shown by LI/DD-II/054A/01” value with CD36 was 10 times. Further, the “IC50 of MMP-1” value in experiment [1] is 1.2 µg/mL.
